The text below walks through data of ChEMBL document CHEMBL4007434, “Indazole-Based Covalent Inhibitors To Target Drug-Resistant Epidermal Growth Factor Receptor” (J Med Chem, 2017).

As a reminder, the inhibition is the relative decrease from the control value, in per cent. In general, IC50 refers to the point on the concentration scale where inhibition reaches its midpoint. The term Ki denotes the equilibrium dissociation constant of an inhibitor or competing ligand from its target. Low values mean higher affinity, high ones lower affinity. Usually kinact stands for the maximal first-order rate at which the target is inactivated. The kinact/KI is the second-order rate constant of inactivation.

Structures are written as SMILES. Calls of active or inactive are those of the source. The rule behind the calls is not given here.

The target of series [1] is Tyrosine-protein kinase BTK (Homo sapiens) (UniProt Q06187). Description: Inhibition of full-length recombinant human His-tagged cytoplasmic BTK expressed in baculovirus expression system at 1 uM by Z'-LYTE assay.
Series [2] relates to Epidermal growth factor receptor (Homo sapiens), P00533 [L858R,T790M]. The note with it: 100 nM.
In series [3] the target is T1, Cytoplasmic tyrosine-protein kinase BMX (Homo sapiens) (UniProt P51813).
T1 sequence (whole entry): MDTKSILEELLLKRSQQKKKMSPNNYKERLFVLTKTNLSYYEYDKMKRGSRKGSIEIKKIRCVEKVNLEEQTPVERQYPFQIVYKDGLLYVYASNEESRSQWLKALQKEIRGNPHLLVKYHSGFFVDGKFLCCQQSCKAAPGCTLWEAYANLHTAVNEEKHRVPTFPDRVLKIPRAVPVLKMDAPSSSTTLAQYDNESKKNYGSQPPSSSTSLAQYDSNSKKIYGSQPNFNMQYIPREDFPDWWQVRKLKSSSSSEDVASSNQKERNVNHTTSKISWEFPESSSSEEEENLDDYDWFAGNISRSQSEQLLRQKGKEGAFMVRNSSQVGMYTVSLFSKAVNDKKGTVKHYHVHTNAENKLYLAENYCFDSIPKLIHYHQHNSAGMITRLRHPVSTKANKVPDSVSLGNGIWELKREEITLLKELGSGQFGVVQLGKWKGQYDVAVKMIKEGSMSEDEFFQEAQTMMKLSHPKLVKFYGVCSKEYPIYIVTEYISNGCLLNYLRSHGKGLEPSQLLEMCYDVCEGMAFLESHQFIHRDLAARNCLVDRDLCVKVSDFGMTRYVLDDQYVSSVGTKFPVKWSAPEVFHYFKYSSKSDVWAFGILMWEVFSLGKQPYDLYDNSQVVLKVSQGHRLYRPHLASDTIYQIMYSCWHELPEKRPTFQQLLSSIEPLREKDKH
Description: Inhibition of full-length recombinant human His-tagged cytoplasmic BMX expressed in baculovirus expression system at 1 uM by Z'-LYTE assay.

Series [4] concerns Epidermal growth factor receptor (Homo sapiens), P00533 [T790M]. The settings on record: 1 uM.
Series [5] concerns Liver. Description: Stability in human liver microsomes at 3 uM up to 50 mins by LCMS analysis. Format: ADME, microsome. Background: Liver microsomes are a subcellular fraction often used to study metabolism.
Series [6] has as its target Epidermal growth factor receptor (Homo sapiens, UniProt P00533, L858R/T790M).
Series [7] deals with Tyrosine-protein kinase Blk (Homo sapiens) (UniProt P51451). The series is described as follows: Inhibition of full-length recombinant human His-tagged cytoplasmic BLK expressed in baculovirus expression system at 1 uM by Z'-LYTE assay.
Series [8] in a line: Stability in human plasma assessed as compound remaining at 5 uM after 1 hr by LCMS analysis. Format: ADME, cell-free. The settings on record: read-out: Stability.
Series [9] addresses Epidermal growth factor receptor (Homo sapiens, UniProt P00533, L858R). Description: Reversible inhibition of human N-terminal GST-tagged EGFR L858R mutant cytoplasmic domain (669 to 1210 end amino acid residues) expressed in baculovirus expression system using TK peptide substrate preincubated for 2 to 90 mins followed by 6-fold dilution.
Series [10] relates to Epidermal growth factor receptor (Homo sapiens), P00533 [L858R].
For series [11], the system named is Epidermal growth factor receptor (Homo sapiens), P00533 [L858R,T790M]. The note with it: 100 nM. This is another data set of the same source.
The target in series [12] is T2, Epidermal growth factor receptor (Homo sapiens, UniProt P00533). The series is described as follows: Reversible inhibition of wild-type human N-terminal GST-tagged EGFR cytoplasmic domain (669 to 1210 end amino acid residues) expressed in baculovirus expression system using TK peptide substrate assessed as inactivation constant preincubated for 2 to 90 mins followed by 6-fold dilution.

Series [13] concerns the target T2, Epidermal growth factor receptor. Description: Ratio of Kinact to Ki for reversible inhibition of wild-type human N-terminal GST-tagged EGFR cytoplasmic domain (669 to 1210 end amino acid residues) expressed in baculovirus expression system.
Series [14] concerns the target Receptor tyrosine-protein kinase erbB-2 (Homo sapiens) (UniProt P04626). Description: Inhibition of ERBB2 (unknown origin) at 1 uM by Z'-LYTE assay.
The test system of series [15] is Epidermal growth factor receptor (Homo sapiens), P00533 [L858R]. The note with it: 1 uM.
In series [16] the test system is Liver. Description: Stability in mouse liver microsomes at 3 uM up to 50 mins by LCMS analysis. Format: ADME, microsome.
Series [17] has as its system Epidermal growth factor receptor (Homo sapiens), P00533 [L858R,T790M].
Series [18] addresses T2, Epidermal growth factor receptor. Format: ADME.

T2 sequence (P00533 whole entry, the tested form may be a part): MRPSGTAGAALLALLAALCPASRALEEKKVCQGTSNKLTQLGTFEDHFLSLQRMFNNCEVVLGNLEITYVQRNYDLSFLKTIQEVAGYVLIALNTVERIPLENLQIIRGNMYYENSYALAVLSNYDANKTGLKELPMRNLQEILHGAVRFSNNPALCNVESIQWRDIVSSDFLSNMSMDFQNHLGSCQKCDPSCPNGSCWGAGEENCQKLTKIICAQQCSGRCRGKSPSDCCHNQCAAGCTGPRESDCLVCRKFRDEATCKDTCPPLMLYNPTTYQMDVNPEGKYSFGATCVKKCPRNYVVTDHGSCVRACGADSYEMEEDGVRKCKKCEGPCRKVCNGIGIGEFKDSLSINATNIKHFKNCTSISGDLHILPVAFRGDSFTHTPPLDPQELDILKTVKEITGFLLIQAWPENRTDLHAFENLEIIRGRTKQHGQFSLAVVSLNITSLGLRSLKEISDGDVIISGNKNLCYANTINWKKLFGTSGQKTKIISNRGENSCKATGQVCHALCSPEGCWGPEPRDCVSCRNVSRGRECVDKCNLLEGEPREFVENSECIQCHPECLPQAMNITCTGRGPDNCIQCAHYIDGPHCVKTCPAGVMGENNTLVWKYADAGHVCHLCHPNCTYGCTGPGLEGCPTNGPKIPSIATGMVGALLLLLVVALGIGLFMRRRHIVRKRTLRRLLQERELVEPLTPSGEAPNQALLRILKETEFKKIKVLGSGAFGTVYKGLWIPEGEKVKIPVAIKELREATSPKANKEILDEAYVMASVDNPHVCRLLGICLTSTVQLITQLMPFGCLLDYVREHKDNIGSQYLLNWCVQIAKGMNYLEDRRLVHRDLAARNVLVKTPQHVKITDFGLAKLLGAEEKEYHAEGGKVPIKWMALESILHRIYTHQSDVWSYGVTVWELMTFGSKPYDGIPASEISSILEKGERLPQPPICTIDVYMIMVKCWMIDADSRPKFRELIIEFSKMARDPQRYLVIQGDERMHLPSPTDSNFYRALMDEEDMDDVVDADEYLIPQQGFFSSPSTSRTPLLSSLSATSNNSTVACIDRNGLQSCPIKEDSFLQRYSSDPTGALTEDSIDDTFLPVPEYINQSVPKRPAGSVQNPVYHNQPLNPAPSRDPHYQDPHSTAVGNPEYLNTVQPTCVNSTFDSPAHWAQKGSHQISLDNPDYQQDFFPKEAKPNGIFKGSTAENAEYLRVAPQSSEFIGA
Chain of Epidermal growth factor receptor (Homo sapiens), P00533 [L858R,T790M] (P00533 whole entry T790M/L858R, looked up, the tested form may be a part): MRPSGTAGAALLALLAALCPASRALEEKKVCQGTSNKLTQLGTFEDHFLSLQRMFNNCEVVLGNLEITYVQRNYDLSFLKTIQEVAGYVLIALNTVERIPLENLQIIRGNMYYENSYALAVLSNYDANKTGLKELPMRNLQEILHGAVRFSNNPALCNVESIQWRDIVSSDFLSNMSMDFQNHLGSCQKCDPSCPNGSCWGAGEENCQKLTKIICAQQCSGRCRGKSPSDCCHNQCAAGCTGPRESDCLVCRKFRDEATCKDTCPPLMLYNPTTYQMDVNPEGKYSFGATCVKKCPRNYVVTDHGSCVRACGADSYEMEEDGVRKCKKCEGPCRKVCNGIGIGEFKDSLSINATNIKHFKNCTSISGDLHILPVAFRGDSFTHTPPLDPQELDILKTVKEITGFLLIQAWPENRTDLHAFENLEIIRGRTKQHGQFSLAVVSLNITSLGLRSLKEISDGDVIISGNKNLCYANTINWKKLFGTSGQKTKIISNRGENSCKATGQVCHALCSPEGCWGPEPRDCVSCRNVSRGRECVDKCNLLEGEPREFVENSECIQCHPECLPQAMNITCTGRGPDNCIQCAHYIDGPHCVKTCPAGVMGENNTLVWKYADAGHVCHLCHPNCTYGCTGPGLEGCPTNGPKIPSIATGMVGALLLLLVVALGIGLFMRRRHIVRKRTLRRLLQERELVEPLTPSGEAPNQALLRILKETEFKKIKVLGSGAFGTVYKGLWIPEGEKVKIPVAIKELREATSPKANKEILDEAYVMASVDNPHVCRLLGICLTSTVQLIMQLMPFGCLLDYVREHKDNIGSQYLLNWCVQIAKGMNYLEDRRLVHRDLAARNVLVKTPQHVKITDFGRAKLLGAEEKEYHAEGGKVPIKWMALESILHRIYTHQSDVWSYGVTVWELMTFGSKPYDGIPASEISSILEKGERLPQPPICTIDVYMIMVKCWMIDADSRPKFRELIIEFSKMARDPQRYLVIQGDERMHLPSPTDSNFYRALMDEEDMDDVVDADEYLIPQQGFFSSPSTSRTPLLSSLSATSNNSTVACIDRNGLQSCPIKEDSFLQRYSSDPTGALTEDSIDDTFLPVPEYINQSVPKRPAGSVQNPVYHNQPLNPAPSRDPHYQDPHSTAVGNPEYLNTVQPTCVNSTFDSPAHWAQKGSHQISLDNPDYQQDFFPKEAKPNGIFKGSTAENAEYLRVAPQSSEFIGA
Chain of Epidermal growth factor receptor (Homo sapiens), P00533 [L858R] (P00533 whole entry L858R): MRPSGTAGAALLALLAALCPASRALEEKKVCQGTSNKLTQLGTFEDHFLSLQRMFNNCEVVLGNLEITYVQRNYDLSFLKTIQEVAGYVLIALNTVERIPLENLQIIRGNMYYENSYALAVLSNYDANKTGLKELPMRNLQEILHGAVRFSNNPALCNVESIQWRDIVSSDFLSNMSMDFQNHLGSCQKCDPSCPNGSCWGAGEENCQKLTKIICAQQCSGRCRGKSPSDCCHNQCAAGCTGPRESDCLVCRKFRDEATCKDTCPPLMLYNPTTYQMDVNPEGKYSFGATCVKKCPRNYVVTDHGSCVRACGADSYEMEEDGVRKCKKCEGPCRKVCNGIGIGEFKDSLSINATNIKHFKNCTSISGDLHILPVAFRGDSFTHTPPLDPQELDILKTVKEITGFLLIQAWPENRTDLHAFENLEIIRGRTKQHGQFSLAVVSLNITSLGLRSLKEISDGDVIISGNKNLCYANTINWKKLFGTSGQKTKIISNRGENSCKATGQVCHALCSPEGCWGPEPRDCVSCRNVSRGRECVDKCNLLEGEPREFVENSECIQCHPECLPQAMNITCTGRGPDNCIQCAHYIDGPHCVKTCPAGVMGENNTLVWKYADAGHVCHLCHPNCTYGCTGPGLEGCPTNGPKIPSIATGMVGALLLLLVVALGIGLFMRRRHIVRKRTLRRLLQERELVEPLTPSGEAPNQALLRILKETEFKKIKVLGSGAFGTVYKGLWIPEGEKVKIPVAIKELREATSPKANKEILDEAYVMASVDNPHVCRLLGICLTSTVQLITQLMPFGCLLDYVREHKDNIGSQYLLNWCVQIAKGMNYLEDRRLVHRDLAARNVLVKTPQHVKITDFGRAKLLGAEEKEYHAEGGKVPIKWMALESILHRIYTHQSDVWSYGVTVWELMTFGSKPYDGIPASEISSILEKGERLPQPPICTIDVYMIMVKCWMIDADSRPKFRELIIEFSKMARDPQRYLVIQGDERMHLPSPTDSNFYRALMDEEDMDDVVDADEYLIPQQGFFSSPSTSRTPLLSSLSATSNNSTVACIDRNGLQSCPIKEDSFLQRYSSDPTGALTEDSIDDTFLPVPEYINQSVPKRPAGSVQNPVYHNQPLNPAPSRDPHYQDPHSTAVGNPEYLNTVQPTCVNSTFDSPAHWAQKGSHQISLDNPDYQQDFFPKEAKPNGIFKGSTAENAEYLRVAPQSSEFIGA
Chain of Epidermal growth factor receptor (Homo sapiens, UniProt P00533, L858R/T790M) (P00533 25-1210 T790M/L858R limits assumed): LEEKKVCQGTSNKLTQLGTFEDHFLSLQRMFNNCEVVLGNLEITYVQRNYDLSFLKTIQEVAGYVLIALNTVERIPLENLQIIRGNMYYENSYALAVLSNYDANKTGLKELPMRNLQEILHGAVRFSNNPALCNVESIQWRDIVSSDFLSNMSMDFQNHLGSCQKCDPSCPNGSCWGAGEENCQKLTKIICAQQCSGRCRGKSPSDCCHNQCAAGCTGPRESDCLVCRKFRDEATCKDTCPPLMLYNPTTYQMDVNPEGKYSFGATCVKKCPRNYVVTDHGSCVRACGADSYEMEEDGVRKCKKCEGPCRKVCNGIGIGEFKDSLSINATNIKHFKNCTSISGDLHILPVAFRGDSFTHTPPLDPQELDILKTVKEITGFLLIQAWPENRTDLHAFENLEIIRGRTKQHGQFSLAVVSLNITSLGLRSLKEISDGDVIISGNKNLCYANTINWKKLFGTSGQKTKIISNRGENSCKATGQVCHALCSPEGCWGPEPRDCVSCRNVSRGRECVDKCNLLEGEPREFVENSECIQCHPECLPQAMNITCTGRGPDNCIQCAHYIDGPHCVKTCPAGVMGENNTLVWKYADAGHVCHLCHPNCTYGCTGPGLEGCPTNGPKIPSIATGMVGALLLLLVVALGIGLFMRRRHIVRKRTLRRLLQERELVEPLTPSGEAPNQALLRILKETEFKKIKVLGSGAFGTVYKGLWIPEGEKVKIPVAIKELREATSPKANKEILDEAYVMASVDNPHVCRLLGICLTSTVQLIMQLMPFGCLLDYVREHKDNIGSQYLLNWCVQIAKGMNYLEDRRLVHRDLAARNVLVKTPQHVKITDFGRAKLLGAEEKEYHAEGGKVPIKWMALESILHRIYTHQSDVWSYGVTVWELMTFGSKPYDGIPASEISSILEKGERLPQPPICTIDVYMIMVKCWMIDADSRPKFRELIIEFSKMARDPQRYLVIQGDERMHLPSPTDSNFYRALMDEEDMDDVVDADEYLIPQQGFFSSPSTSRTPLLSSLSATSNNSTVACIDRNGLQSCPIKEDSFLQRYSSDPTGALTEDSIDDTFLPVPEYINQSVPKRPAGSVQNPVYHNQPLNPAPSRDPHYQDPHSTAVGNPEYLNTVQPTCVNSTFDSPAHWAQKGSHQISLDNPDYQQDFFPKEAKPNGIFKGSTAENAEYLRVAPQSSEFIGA

Consider `C=CC(=O)Nc1cc(Nc2n[nH]c3cc(Nc4cccc(F)c4)ccc23)c(OC)cc1N(C)CCN(C)C`, for which the inhibition is more than 85% in series [1]; more than 85% in [3]; more than 95% in series [4]; more than 85% in series [7]; more than 95% in [15]. Besides, the inhibition result in series [2], in [11] and in [14] was “Active” throughout. Further, the Stability entry with Liver [5] and with Liver [16] was “Stable” each time. Moreover, the IC50 in series [6] and in series [18] was less than 1 nM in each case. In addition, the remaining at 1 h, 5 µM in series [8] is more than 75%. The molecule also showed a Ki in series [9] of 3.9 nM. The figures for the Kinact in series [10] and in series [17] were 0.09 min⁻¹ and 0.17 min⁻¹, respectively. The kinact in series [12] was 0.00233 s⁻¹. Further, the kinact/KI in [13] amounted to 470000 M⁻¹ s⁻¹.
